“And” between values parts separate entries of the source, which are not always exact repeats. Identical values can stand only once. Inconclusive results and toxic doses are left out. How the source made its calls: active means survival T/C of 150% or more; inactive means T/C below 125% in these data.
Tested on: P388 leukemia ip, CD2F1 mice, survival T/C
Experiment: NCI In Vivo Anticancer Drug Screen. Data for tumor model P388 Leukemia (intraperitoneal) in CD2F1 (CDF1) mice
Settings: endpoint: median survival time, higher = longer survival
Method in brief: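 Mice carrying the transplanted tumor received test compound or vehicle. Survival was recorded in each group, and the value is the treated-group measurement divided by that of the vehicle-treated control group.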

[1] = dose: 50.0 mg/kg/injection, schedule: Q01DX005 (ip), vehicle: saline with Tween-80
[2] = dose: 100.0 mg/kg/injection, schedule: Q01DX005 (ip), vehicle: saline with Tween-80
[3] = dose: 200.0 mg/kg/injection, schedule: Q01DX005 (ip), vehicle: saline with Tween-80
[4] = dose: 200.0 mg/kg/injection, schedule: Q01DX009 (ip), vehicle: saline with Tween-80
[5] = dose: 60.0 mg/kg/injection, schedule: Q01DX005 (ip), vehicle: saline with Tween-80
[6] = dose: 120.0 mg/kg/injection, schedule: Q01DX005 (ip), vehicle: saline with Tween-80
[7] = dose: 50.0 mg/kg/injection, schedule: Q01DX009 (ip), vehicle: saline
[8] = dose: 100.0 mg/kg/injection, schedule: Q01DX009 (ip), vehicle: saline
[9] = dose: 200.0 mg/kg/injection, schedule: Q01DX009 (ip), vehicle: saline
[10] = dose: 50.0 mg/kg/injection, schedule: Q01DX009 (ip), vehicle: Klucel (hydroxypropylcellulose) (HPC)
[11] = dose: 50.0 mg/kg/injection, schedule: Q01DX009 (ip), vehicle: other
[12] = dose: 100.0 mg/kg/injection, schedule: Q01DX009 (ip), vehicle: Klucel (hydroxypropylcellulose) (HPC)
[13] = dose: 200.0 mg/kg/injection, schedule: Q01DX009 (ip), vehicle: Klucel (hydroxypropylcellulose) (HPC)

Measured: T/C

O=C(O)c1cc(=O)c2c(OCC(O)COc3cccc4oc(C(=O)O)cc(=O)c34)cccc2o1.[Cu+2]
inactive: dose: 12.5 mg/kg/injection, schedule: Q04DX002 (ip), vehicle: Klucel (hydroxypropylcellulose) (HPC) 99 % of control | dose: 25.0 mg/kg/injection, schedule: Q04DX002 (ip), vehicle: Klucel (hydroxypropylcellulose) (HPC) 96 % of control | dose: 50.0 mg/kg/injection, schedule: Q04DX002 (ip), vehicle: Klucel (hydroxypropylcellulose) (HPC) 95 % of control

OCCN1CCN(CCCOC2=Nc3ccccc3O/C2=C/c2ccccc2)CC1
inactive: dose: 25.0 mg/kg/injection, schedule: Q04DX003 (ip), vehicle: saline 100 % of control | dose: 50.0 mg/kg/injection, schedule: Q04DX003 (ip), vehicle: saline 100 % of control | dose: 100.0 mg/kg/injection, schedule: Q04DX003 (ip), vehicle: saline 98 % of control and 101 % of control

O=[N+]([O-])c1ccc(Oc2c3ccccc3nc3ccccc23)cc1
inactive: [1] 90 % of control | [2] 90 % of control | [3] 93 % of control

Nc1ccccc1Nc1ccncc1
inactive: dose: 25.0 mg/kg/injection, schedule: Q01DX009 (ip), vehicle: suspension in saline 97 % of control | dose: 50.0 mg/kg/injection, schedule: Q01DX009 (ip), vehicle: suspension in saline 100 % of control | dose: 100.0 mg/kg/injection, schedule: Q01DX009 (ip), vehicle: suspension in saline 97 % of control

c1ccc(-c2nnc(-c3ccccc3)nn2)cc1
inactive: dose: 50.0 mg/kg/injection, schedule: Q04DX003 (ip), vehicle: saline with Tween-80 100 % of control | dose: 100.0 mg/kg/injection, schedule: Q04DX003 (ip), vehicle: saline with Tween-80 100 % of control | dose: 200.0 mg/kg/injection, schedule: Q04DX003 (ip), vehicle: saline with Tween-80 97 % of control | dose: 400.0 mg/kg/injection, schedule: Q04DX003 (ip), vehicle: saline with Tween-80 93 % of control

CCOC(=O)C(C)(C)Oc1ccc(Cl)cc1
inactive: dose: 50.0 mg/kg/injection, schedule: Q01DX009 (ip), vehicle: saline with Tween-80 100 % of control | dose: 100.0 mg/kg/injection, schedule: Q01DX009 (ip), vehicle: saline with Tween-80 93 % of control | [4] 112 % of control

CCOC(=O)Cc1cc(=O)oc2c(CN3CCN(c4ccc(C)cc4)CC3)c(O)ccc12
inactive: [5] 100 % of control | [6] 87 % of control | dose: 240.0 mg/kg/injection, schedule: Q01DX005 (ip), vehicle: saline with Tween-80 99 % of control

CC1(C)OC2OCCC(N=[N+]=[N-])C2O1 (configuration not stated)
inactive: [1] 96 % of control | [2] 96 % of control | [3] 94 % of control

CC1(C)NCCc2c1[nH]c1ccccc21
inactive: dose: 50.0 mg/kg/injection, schedule: Q04DX002 (ip), vehicle: suspension in saline 100 % of control | dose: 100.0 mg/kg/injection, schedule: Q04DX002 (ip), vehicle: suspension in saline 100 % of control | dose: 200.0 mg/kg/injection, schedule: Q04DX002 (ip), vehicle: suspension in saline 100 % of control

CSc1cccc(NC(=O)Oc2ccc([N+](=O)[O-])cc2Cl)c1
inactive: dose: 6.25 mg/kg/injection, schedule: Q01DX009 (ip), vehicle: DMSO 100 % of control | dose: 12.5 mg/kg/injection, schedule: Q01DX009 (ip), vehicle: DMSO 93 % of control

COC(=O)C(OC)(OC)C(O)C(C)C (configuration not stated)
inactive: dose: 60.0 mg/kg/injection, schedule: Q01DX005 (ip), vehicle: saline 104 % of control | dose: 120.0 mg/kg/injection, schedule: Q01DX005 (ip), vehicle: saline 103 % of control | dose: 240.0 mg/kg/injection, schedule: Q01DX005 (ip), vehicle: saline 103 % of control

CNC(=S)NNc1nnc(NNC(=S)NC)c2ccccc12
inactive: [7] 94 % of control | [8] 97 % of control | [9] 102 % of control

C=C(C)C(=O)Nc1ccc(-n2[nH]c(C)c(N=Nc3ccc(N(C)C)cc3)c2=O)cc1
inactive: [1] 98 % of control | [2] 96 % of control | [3] 100 % of control

Cc1ccc(CCN2CSC(=S)N(CCc3ccc(C)cc3)C2)cc1
inactive: dose: 12.5 mg/kg/injection, schedule: Q01DX009 (ip), vehicle: Klucel (hydroxypropylcellulose) (HPC) 101 % of control | dose: 25.0 mg/kg/injection, schedule: Q01DX009 (ip), vehicle: Klucel (hydroxypropylcellulose) (HPC) 96 % of control | [10] 100 % of control | [11] 96 % of control

CC(O)c1ccc(C(C)O)cc1 (configuration not stated)
inactive: [7] 91 % of control | [8] 86 % of control | [9] 96 % of control

COc1nc(Cl)nc(OC)n1
inactive: [4] 86 % of control

Cc1ccc(S(=O)(=O)OC(C#N)c2ccccc2)cc1 (configuration not stated)
inactive: [10] 111 % of control | [12] 102 % of control | [13] 100 % of control | dose: 400.0 mg/kg/injection, schedule: Q01DX009 (ip), vehicle: Klucel (hydroxypropylcellulose) (HPC) 106 % of control

CN(C)c1nc(=O)c(-c2ccccc2)c(-c2ccccc2)o1
inactive: dose: 100.0 mg/kg/injection, schedule: Q04DX002 (ip), vehicle: Klucel (hydroxypropylcellulose) (HPC) 103 % of control | dose: 200.0 mg/kg/injection, schedule: Q04DX002 (ip), vehicle: Klucel (hydroxypropylcellulose) (HPC) 106 % of control | dose: 400.0 mg/kg/injection, schedule: Q04DX002 (ip), vehicle: Klucel (hydroxypropylcellulose) (HPC) 103 % of control

NNC(=O)c1ccc2ccccc2c1O
inactive: dose: 25.0 mg/kg/injection, schedule: Q01DX009 (ip), vehicle: saline 103 % of control | [7] 99 % of control | [8] 101 % of control | [9] 96 % of control

CC(O)C1/C=C/C=C\C(=O)O[C@@H]2C[C@H]3OC4C5OC5(C)CCC4(COC(=O)C4O[C@@]4(C)CCO1)[C@]2(C)[C@]31CO1 (some centres not stated)
inactive: dose: 1.25 mg/kg/injection, schedule: Q01DX009 (ip), vehicle: Klucel (hydroxypropylcellulose) (HPC) 104 % of control | dose: 2.5 mg/kg/injection, schedule: Q01DX009 (ip), vehicle: Klucel (hydroxypropylcellulose) (HPC) 113 % of control | dose: 5.0 mg/kg/injection, schedule: Q01DX009 (ip), vehicle: Klucel (hydroxypropylcellulose) (HPC) 118 % of control | dose: 10.0 mg/kg/injection, schedule: Q01DX009 (ip), vehicle: Klucel (hydroxypropylcellulose) (HPC) 122 % of control

C=C1C(=O)OC2/C=C(/C)C3OC3/C=C(/C(=O)OC)C(OC(C)=O)C(OC(=O)C3(C)OC3C)C12 (configuration not stated)
inactive: dose: 1.5 mg/kg/injection, schedule: Q01DX009 (ip), vehicle: Klucel (hydroxypropylcellulose) (HPC) 124 % of control | dose: 12.0 mg/kg/injection, schedule: Q01DX009 (ip), vehicle: Klucel (hydroxypropylcellulose) (HPC) 86 % of control

O=C(Oc1ccccc1)N1CCCSC1=S
inactive: [5] 98 % of control | [6] 100 % of control

CNc1nnnn1C
inactive: dose: 50.0 mg/kg/injection, schedule: Q01DX005 (ip), vehicle: saline 98 % of control | dose: 100.0 mg/kg/injection, schedule: Q01DX005 (ip), vehicle: saline 98 % of control | dose: 200.0 mg/kg/injection, schedule: Q01DX005 (ip), vehicle: saline 98 % of control

Cc1cccc(/C=N/Nc2cc(C)nc3ccccc23)n1
inactive: [10] 109 % of control | [12] 118 % of control | [13] 117 % of control

COc1ccc(C(=O)c2ncccc2C(=O)O)cc1OC
inactive: dose: 25.0 mg/kg/injection, schedule: Q01DX009 (ip), vehicle: other 93 % of control | [11] 88 % of control | dose: 100.0 mg/kg/injection, schedule: Q01DX009 (ip), vehicle: other 100 % of control | dose: 200.0 mg/kg/injection, schedule: Q01DX009 (ip), vehicle: other 97 % of control | dose: 400.0 mg/kg/injection, schedule: Q01DX009 (ip), vehicle: other 94 % of control
